Assay in all cases: inhibition of tumour cell growth, NCI panel, 48 h
Assay [1] has as its system A498 renal.
In assay [2] the test system is HCC-2998 colon.
Assay [3] deals with HOP-62 NSCLC.
Assay [4] deals with HT29 colon.
The test system of assay [5] is K-562 leukemia.
The test system of assay [6] is MDA-MB-435.
In assay [7] the test system is NCI-H226 lung.
For assay [8], the system named is SK-MEL-5 melanoma.
For assay [9], the system named is UACC-257 melanoma.
For assay [10], the system named is SF-295 CNS.

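1) Cells in 96-well plates. 2) Compound, 48 h, 5 concentrations. 3) Linear interpolation between surrounding doses. 4) Unreached endpoint = highest concentration. Here, GI50 denotes the concentration required for 50% inhibition of growth. Definition used: TGI = concentration required for complete inhibition of growth.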 A value given as a limit tells only on which side of the number the result lay.

For `CC1=CC2C(C(C)C)CC1C1C(=O)OC(=O)C21` (stereo not given), the TGI in assay [1], in assay [2], in [3], in [4], in assay [5] and in assay [6] was over 100 µM in each case. Further, the TGI in assay [7], in [8] and in assay [9] was over 100 µM each time.
With `C[n+]1ccc(-c2c3nc(c(-c4ccc5c(ccc[n+]5C)c4)c4ccc([nH]4)c(-c4cc[n+](C)cc4)c4nc(c(-c5ccc6c(ccc[n+]6C)c5)c5ccc2[nH]5)C=C4)C=C3)cc1`, the GI50 in assay [1] was 27.2 µM; in [2], 49.7 µM; in assay [3], 13.3 µM; in [4], over 50 µM; in assay [5], 31.4 µM; in assay [6], 12.9 µM. The figures for the GI50 in [10], in assay [8] and in assay [9] were 40.5 µM, 17.6 µM and 12.9 µM, respectively. The TGI is over 50 µM in assay [1]; over 50 µM in [2]; over 50 µM in assay [3]; over 50 µM in assay [4]; over 50 µM in assay [5]; 36.9 µM in assay [6]. Besides, the TGI was over 50 µM in [10], over 50 µM in assay [8] and 48.5 µM in assay [9].
For the compound `CC(C)[C@@H]1CC[C@@H]2[C@@H]1[C@H](OC(=O)/C=C/c1ccccc1)[C@]1(C(C)C)C[C@@H](OC(=O)CO)[C@@]2(C)O1`, the GI50 in [1] was 0.00806 µM; in [2], 6.35 µM; in [3], 6.45 µM; in assay [4], 6.92 µM; in assay [5], 10.4 µM; in assay [6], 5.65 µM. In addition, the GI50 in [7] is 5.27 µM; in assay [10], 5.07 µM; in [8] it was 5.96 µM; in assay [9], 7.83 µM. Moreover, the TGI in [1] was found to be 0.0288 µM; in assay [2] it was 11.7 µM; in assay [3], 14.5 µM; in assay [4], 14.4 µM; in [5] it was 24.1 µM; in [6], 10.6 µM. Besides, the TGI is 10.9 µM in [7], 9.56 µM in [10], 10.8 µM in assay [8] and 17.6 µM in assay [9].
Regarding `CCCCCCCCCC(CCCC(O)CC(=O)O)OC1OC(COC2OC(C)C(O)C(O)C2O)C(O)C(O)C1OC1OC(CO)C(O)C(O)C1OC1OC(C)C(O)C(O)C1O` (stereo not given), the GI50 in assay [1], in [2], in assay [3], in [4], in [5] and in assay [6] was over 40 µM in each case. The GI50 in [7], in assay [10], in assay [8] and in [9] was over 40 µM in each case. Also, the TGI in assay [1], in [2], in assay [3], in assay [4], in assay [5] and in assay [6] was over 40 µM in each case. In addition, the TGI in assay [7], in assay [10], in assay [8] and in [9] was over 40 µM in each case.
Take `O=C(CCl)Nc1ccc2c(c1)C(=O)c1ccc(NC(=O)CCl)cc1C2=O`: the GI50 in [1] was 3.49 µM; in assay [2], 1.77 µM; in assay [4], 0.314 µM; in [5] it was 0.319 µM; in assay [6] it was 0.395 µM; in assay [7], 0.229 µM. Moreover, the GI50 is 1.44 µM in assay [10], 0.214 µM in [8] and 1.8 µM in assay [9]. Moreover, the TGI in [1] is 27.6 µM; in [2], 3.79 µM; in assay [4], 4.21 µM; in [5], over 100 µM; in assay [6], 1.81 µM; in [7], 0.711 µM. Besides, the TGI in assay [10] turned out to be 3.29 µM; in assay [8] it was 0.502 µM; in assay [9] it was 4.87 µM.
As to `O=CC1(C2(C=O)c3ccccc3-c3ccccc32)c2ccccc2-c2ccccc21`, the GI50 in [1] was 2.33 µM; in assay [2], over 100 µM; in [3], 6.17 µM; in assay [4] it was 1.32 µM; in assay [5], 2.3 µM; in assay [6], 1.92 µM. The GI50 in [7] was 3.3 µM; in assay [8], 1.95 µM; in assay [9], 2.16 µM. Besides, the TGI was 5.36 µM in [1]; over 100 µM in [2]; 10.4 µM in assay [3]; 2.51 µM in assay [4]; over 22.6 µM in assay [5]; 4.51 µM in assay [6]. For the same compound, the TGI was found to be 7.24 µM in assay [7], 4.02 µM in [8] and 5.29 µM in assay [9].
Consider `CCN1CCN(C(=O)[C@]23CCC(C)(C)C[C@@H]2C2=CC[C@@H]4[C@@]5(C)C/C(=C/c6cccnc6)C(=O)C(C)(C)[C@@H]5CC[C@@]4(C)[C@]2(C)CC3)CC1`, for which the GI50 is 1.66 µM in [1]; 1.58 µM in assay [2]; 1.88 µM in [3]; 1.71 µM in assay [4]; 1.43 µM in assay [5]; 1.48 µM in [6]. Besides, the GI50 was 1.66 µM in assay [10], 1.63 µM in [8] and 1.62 µM in [9]. Moreover, the TGI is 3.53 µM in assay [1]; 3.12 µM in assay [2]; 3.75 µM in assay [3]; 4.67 µM in assay [4]; over 100 µM in assay [5]; 3.11 µM in assay [6]. Moreover, the figures for the TGI in assay [10], in assay [8] and in assay [9] were 3.15 µM, 3 µM and 4.29 µM, respectively.
On to `O=C1c2ccccc2C(=O)c2c1ccc1c2OCO1`, for which the TGI in [1], in [2], in assay [3], in [4], in assay [6] and in [7] was over 100 µM in each case. The TGI in assay [10], in [8] and in assay [9] was over 100 µM in each case.
